Assay results: article PMC8348142, “Antimicrobial Peptide Modifications against Clinically Isolated Antibiotic-Resistant Salmonella” (Molecules, 2021)
Ends that are not written are not given here.

What was measured:
[1] = Overall hydrophobicity from RP-HPLC data (percent acetonitrile at elution); assay type: physicochemical; details: percentage of acetonitrile at which the peptide eluted, more % ACN = more hydrophobic
[2] = system: clinical Salmonella isolates; assay: MIC, broth microdilution; assay type: cell-based; details: for MIC: MHB, 5 × 10^5 CFU/mL, 37 °C, 18 h, duplicate
[3] = system: clinical Salmonella isolates; assay: MBC, drop plate method, and MBC/MIC mode of action; assay type: cell-based; details: for MBC: drop plate on MHA from MIC plate, 37 °C, 18 h, thrice
Experimental: All 12 isolates of Salmonella used in this study were clinical isolates and anonymous left-overs from laboratory diagnoses. They were maintained in a 20% glycerol (Sigma-Aldrich) stock at −80 °C and further cultured on Mueller-Hinton agar (MHA, Oxoid, Hampshire, UK) at 37 °C for 18 h to obtain single colonies for antimicrobial assays. This study was approved by the Ethics Committee of the Faculty of Tropical Medicine (Mahidol University, Bangkok, Thailand; MUTM-EXMPT 2017-007).
The plate derived from the MIC assay was immediately tested for the MBC using a drop plate method. A volume of 10 µL of the culture from individual wells at MIC, 2MIC, and 4MIC was dropped on MHA plates. […] The experiment was thrice performed.
In order to determine whether the peptides have bacteriostatic or bactericidal activity, a ratio of MBC to MIC (MBC/MIC) was applied. The ratio >4 was indicative of bacteriostatic peptide, and ≤4 was inferred as bactericidal peptide.

[4] = system: clinical Salmonella isolates; assay: Antibiofilm: inhibition of initial cell attachment, crystal violet; assay type: cell-based; details: 24 h, 30 °C, polystyrene plate, crystal violet OD590
Experimental: The effect of peptides on biofilm formation was tested according to the method described by Sandasi et al. with slight modifications.
Bacterial suspensions of 5 × 10^5 CFU/mL in MHB were prepared as described above. […] The plates were incubated to grow biofilms for 24 h at 30 °C. The incubations of bacteria without peptide and MHB without bacteria were employed as positive (100%) control and negative (0%) control for biofilm growth, respectively. The assay was carried out twice.
The biofilm biomasses obtained from the antibiofilm assay plates were quantified by the crystal violet (CV) staining method with minor modifications. After incubating the plates to grow the biofilms, the growth medium and free bacterial cells were gently removed from the wells and then rinsed thrice with water. The plates were air-dried and subsequently 60 °C oven-dried for 30 min. Each well was stained with 125 µL of 0.1% CV (Merck, Burlington, MA, USA) solution for 15 min. The solution was removed from the wells and further thrice rinsed with water. The biomass bound CV was dissolved with 125 µL of 95% ethanol (Merck) for 5 min, and was transferred into a flat-bottom PS 96-well plate (Jet Biofil, Guangzhou, China). Absorbance values at 590 nm (OD590) of the dissolved solutions were measured by a microplate reader (Tecan Sunrise, Männedorf, Switzerland). Mean OD590 values were determined and all were subtracted by mean OD590 of MHB (negative control) prior to calculate the inhibition (%) as; ((OD590 (no peptide) − OD590 (peptide))/(OD590 (no peptide)) × 100.

[5] = geometric mean over 12 clinical Salmonella isolates

## FIRRIARLLRRIF-NH2 [Kn2-5R-NH2]
[1]
  ACN (%) at elution, overall hydrophobicity: 42.1%
[2]; [5]
  GM of MIC (GMMIC): 4 µM
[2]; isolate 5 (Enteritidis, blood; resistant AMP, SXT, KZ)
  MIC: 4 µM
[2]; isolate 7 (Typhimurium, blood; resistant AMP, CN, TE, NA, SXT)
  MIC: 4 µM
[2]; isolate 11 (I 1,4:i:-, blood; resistant AMP, TE, NA, SXT, C)
  MIC: 4 µM
[2]; isolate 18 (Stanley, urine; resistant TE, SXT, C)
  MIC: 4 µM
[2]; isolate 26 (Typhimurium, urine; resistant TZP, TE, NA)
  MIC: 4 µM
[2]; isolate 27 (Typhimurium, stool; resistant AMP, TE, NA, SXT, CIP)
  MIC: 4 µM
[2]; isolate 55 (Typhimurium, blood; resistant AMP, SXT, C, TE)
  MIC: 4 µM
[2]; isolate 61 (Enteritidis, blood; resistant AMP, TE, NA, SXT)
  MIC: 4 µM
[2]; isolate 69 (Typhimurium, stool; resistant AMP)
  MIC: 4 µM
[2]; isolate 76 (Enteritidis, CSF; resistant NA)
  MIC: 4 µM
[2]; isolate 78 (Enteritidis, blood; resistant TE, CIP, NA, SXT)
  MIC: 4 µM
[2]; isolate 107 (Typhimurium, stool; susceptible)
  MIC: 4 µM
[3]; [5]
  GM of MBC: 4 µM
[3]; isolate 5 (Enteritidis)
  MBC: 4 µM
[3]; isolate 7 (Typhimurium)
  MBC: 4 µM
[3]; isolate 11 (I 1,4:i:-)
  MBC: 4 µM
[3]; isolate 18 (Stanley)
  MBC: 4 µM
[3]; isolate 26 (Typhimurium)
  MBC: 4 µM
[3]; isolate 27 (Typhimurium)
  MBC: 4 µM
[3]; isolate 55 (Typhimurium)
  MBC: 4 µM
[3]; isolate 61 (Enteritidis)
  MBC: 4 µM
[3]; isolate 69 (Typhimurium)
  MBC: 4 µM
[3]; isolate 76 (Enteritidis)
  MBC: 4 µM
[3]; isolate 78 (Enteritidis)
  MBC: 4 µM
[3]; isolate 107 (Typhimurium)
  MBC: 4 µM
[3]; ≤4 bactericidal, >4 bacteriostatic, 12 clinical Salmonella isolates
  MBC/MIC ratio: 1
[4]; 0.25MBC, isolate 5
  Inhibition (%) of cell attachment: 69%
[4]; 0.25MBC, isolate 7
  Inhibition (%) of cell attachment: 73.6%
[4]; 0.25MBC, isolate 11
  Inhibition (%) of cell attachment: 64.3%
[4]; 0.25MBC, isolate 18
  Inhibition (%) of cell attachment: 25%
[4]; 0.25MBC, isolate 26
  Inhibition (%) of cell attachment: 88.2%
[4]; 0.25MBC, isolate 27
  Inhibition (%) of cell attachment: 79.1%
[4]; 0.25MBC, isolate 55
  Inhibition (%) of cell attachment: 73.3%
[4]; 0.25MBC, isolate 61
  Inhibition (%) of cell attachment: 33.3%
[4]; 0.25MBC, isolate 69
  Inhibition (%) of cell attachment: 40%
[4]; 0.25MBC, isolate 76
  Inhibition (%) of cell attachment: 79.1%
[4]; 0.25MBC, isolate 78
  Inhibition (%) of cell attachment: 43.9%
[4]; 0.25MBC, isolate 107
  Inhibition (%) of cell attachment: 78.3%
[4]; 0.5MBC, isolate 5
  Inhibition (%) of cell attachment: 100%
[4]; 0.5MBC, isolate 7
  Inhibition (%) of cell attachment: 93%
[4]; 0.5MBC, isolate 11
  Inhibition (%) of cell attachment: 100%
[4]; 0.5MBC, isolate 18
  Inhibition (%) of cell attachment: 58.3%
[4]; 0.5MBC, isolate 26
  Inhibition (%) of cell attachment: 100%
[4]; 0.5MBC, isolate 27
  Inhibition (%) of cell attachment: 100%
[4]; 0.5MBC, isolate 55
  Inhibition (%) of cell attachment: 84.1%
[4]; 0.5MBC, isolate 61
  Inhibition (%) of cell attachment: 63.2%
[4]; 0.5MBC, isolate 69
  Inhibition (%) of cell attachment: 64.8%
[4]; 0.5MBC, isolate 76
  Inhibition (%) of cell attachment: 100%
[4]; 0.5MBC, isolate 78
  Inhibition (%) of cell attachment: 98.9%
[4]; 0.5MBC, isolate 107
  Inhibition (%) of cell attachment: 100%
